Source: patent publication US7632933B2, “Corticotropin releasing factor 2 receptor agonists” (priority 2002, dated 2009)
Where two headings read alike, the source gives them in different places. Ends that are not written are not given here. Peptide text beside a SMILES is read from it.

Legend:
[1] = target: T1, CRF2R (Homo sapiens, UniProt Q13324); experiment: CRF2R agonist activity (EC50 and Emax), called comparative CRF binding; type: cell-based
T1 sequence (Q13324 1-411): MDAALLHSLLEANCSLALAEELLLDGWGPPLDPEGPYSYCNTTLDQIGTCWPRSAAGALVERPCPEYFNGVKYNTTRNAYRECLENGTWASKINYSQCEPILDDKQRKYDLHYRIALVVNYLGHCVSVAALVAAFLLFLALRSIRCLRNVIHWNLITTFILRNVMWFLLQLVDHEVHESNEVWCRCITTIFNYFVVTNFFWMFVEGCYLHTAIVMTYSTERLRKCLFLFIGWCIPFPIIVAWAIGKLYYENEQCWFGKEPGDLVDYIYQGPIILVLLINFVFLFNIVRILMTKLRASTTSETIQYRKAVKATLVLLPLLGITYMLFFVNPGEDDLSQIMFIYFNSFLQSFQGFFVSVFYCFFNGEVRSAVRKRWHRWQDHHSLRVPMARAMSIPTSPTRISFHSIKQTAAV
Procedure, shortened: (§1)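 Steps: express single CRFR subtype in cells; add peptide or vehicle; prepare lysates or quantify CRE-linked reporter (e.g. luciferase, CAT, GFP, alkaline phosphatase) to gauge cAMP increase.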

[2] = target: T2, CRF1R (Homo sapiens, UniProt P34998); experiment: CRF1R agonist activity (EC50 and Emax), called comparative CRF binding; type: cell-based
T2 sequence (P34998 24-415): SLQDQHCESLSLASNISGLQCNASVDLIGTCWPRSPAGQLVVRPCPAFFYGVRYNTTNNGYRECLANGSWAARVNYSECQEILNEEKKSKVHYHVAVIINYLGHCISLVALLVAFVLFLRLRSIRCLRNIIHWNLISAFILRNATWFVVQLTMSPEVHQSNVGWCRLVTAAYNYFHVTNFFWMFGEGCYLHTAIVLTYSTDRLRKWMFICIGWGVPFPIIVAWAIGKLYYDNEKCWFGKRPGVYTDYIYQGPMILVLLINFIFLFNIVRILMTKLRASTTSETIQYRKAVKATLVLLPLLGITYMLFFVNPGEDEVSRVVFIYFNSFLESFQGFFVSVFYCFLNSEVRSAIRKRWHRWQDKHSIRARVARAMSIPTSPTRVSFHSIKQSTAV
Procedure, shortened: as §1

CC[C@H](C)[C@H](NC(=O)[C@H](CCC(N)=O)NC(=O)[C@H](C)NC(=O)[C@H](CCSC)NC(=O)[C@H](CC(C)C)NC(=O)[C@H](Cc1c[nH]cn1)NC(=O)[C@H](C)NC(=O)[C@H](CC(N)=O)NC(=O)[C@H](C)NC(=O)[C@H](C)NC(=O)[C@H](C)NC(=O)[C@H](CCC(N)=O)NC(=O)[C@H](C)NC(=O)[C@H](CCCNC(=N)N)NC(=O)[C@H](CC(C)C)NC(=O)[C@H](CC(N)=O)NC(=O)[C@H](CCCCN)NC(=O)[C@H](C)NC(=O)[C@H](CCCCN)NC(=O)[C@H](C)NC(=O)[C@@H](NC(=O)[C@H](CC(N)=O)NC(=O)[C@H](Cc1ccccc1)NC(=O)[C@H](CC(C)C)NC(=O)[C@H](CC(C)C)NC(=O)[C@H](CC(N)=O)NC(=O)[C@H](CCSC)NC(=O)[C@@H](NC(=O)[C@H](CC(N)=O)NC(=O)[C@@H](NC(=O)[C@@H]1CCCN1C(=O)[C@@H](NC(=O)[C@H](CC(=O)O)NC(=O)[C@H](CC(C)C)NC(=O)[C@H](CO)NC(=O)[C@H](CC(C)C)NC(=O)[C@@H](NC(=O)[C@H](Cc1ccccc1)NC(=O)[C@H](CCCCN)NC(=O)[C@@H](N)[C@@H](C)O)[C@@H](C)O)C(C)C)[C@@H](C)O)[C@@H](C)CC)[C@@H](C)CC)C(N)=O [hUroIII, reference compound] (H-TKFTLSLDVPTNIMNLLFNIAKAKNLRAQAAANAHLMAQI-NH2)
EC50 ([1]; CRF2R EC50): > 100 nM | EC50 ([2]; CRF1R EC50): > 1000 nM

NDDPPISIDLPFQLLRNMIEMARIENEREQAGLNAKYLAEV-NH2 [compound 258]
EC50 ([1]; CRF2R, read-out: CRF2R EC50): ≥ 100 nM | EC50 ([2]; CRF1R, read-out: CRF1R EC50): ≥ 1000 nM

NDDPPISIDLPLILLRNMIEMARIENEREQAGLNAKYLAEV-NH2 [compound 269]
EC50 ([1]; CRF2R, read-out: CRF2R EC50): ≥ 100 nM | EC50 ([2]; CRF1R, read-out: CRF1R EC50): ≥ 1000 nM

NDDPPISIDLPLLLLRNMIEMARIENEREQAGLNAKYLAEV-NH2 [compound 268]
EC50 ([1]; CRF2R, read-out: CRF2R EC50): ≥ 100 nM | EC50 ([2]; CRF1R, read-out: CRF1R EC50): ≥ 1000 nM

NDDPPISIDLPLQLLRNMIEMARIENEREQAGLNAKYLAEV-NH2 [compound 270]
EC50 ([1]; CRF2R, read-out: CRF2R EC50): ≥ 100 nM | EC50 ([2]; CRF1R, read-out: CRF1R EC50): ≥ 1000 nM

NDDPPISIDLPQYLLRNMIEMARIENEREQAGLNAKYLAEV-NH2 [compound 265]
EC50 ([1]; CRF2R, read-out: CRF2R EC50): ≥ 100 nM | EC50 ([2]; CRF1R, read-out: CRF1R EC50): ≥ 1000 nM

NDDPPISIDLPTYLLRNMIEMARIENEREQAGLNAKYLAEV-NH2 [compound 266]
EC50 ([1]; CRF2R, read-out: CRF2R EC50): ≥ 100 nM | EC50 ([2]; CRF1R, read-out: CRF1R EC50): ≥ 1000 nM

NDDPPISIDLPYYLLRNMIEMARIENEREQAGLNAKYLAEV-NH2 [compound 267]
EC50 ([1]; CRF2R, read-out: CRF2R EC50): ≥ 100 nM | EC50 ([2]; CRF1R, read-out: CRF1R EC50): ≥ 1000 nM

SEEPPISLDLTFHLLREVLEMARAEQLAQQAHTNARILARV-NH2 [compound 161]
EC50 ([1]; CRF2R, read-out: CRF2R EC50): > 100 nM | EC50 ([2]; CRF1R, read-out: CRF1R EC50): > 100 nM

SEEPPISLDVPIGLLQEVLEMARAEQLAQQAHSNRKLMEII-NH2 [compound 162]
EC50 ([1]; CRF2R, read-out: CRF2R EC50): > 100 nM | EC50 ([2]; CRF1R, read-out: CRF1R EC50): > 100 nM

SQEIVLSLDVPIGLLREVLEMTKADQLAQQAHSNRKLLDIA-NH2 [compound 7]
CRF2R (Emax %) ([1]; CRF2R, Emax): (19) % | CRF1R (Emax %) ([2]; CRF1R, Emax): (4) %

SQEPPISLDLPFELLREVLEMTKADQLAQQAHSNRKLLDIA-NH2 [compound 97]
EC50 ([1]; CRF2R, read-out: CRF2R EC50): ≥ 100 nM | EC50 ([2]; CRF1R, read-out: CRF1R EC50): ≥ 100 nM

SQEPPISLDLPFGLLREVLEMTKADQLAQQAHSNRKLLDIA-NH2 [compound 103]
EC50 ([1]; CRF2R, read-out: CRF2R EC50): ≥ 100 nM | EC50 ([2]; CRF1R, read-out: CRF1R EC50): ≥ 100 nM

SQEPPISLDLPFQLLREVLEMTKADQLAQQAHSNRKLLDIA-NH2 [compound 91]
EC50 ([1]; CRF2R, read-out: CRF2R EC50): ≥ 100 nM | EC50 ([2]; CRF1R, read-out: CRF1R EC50): ≥ 100 nM

SQEPPISLDLPFYLLREVLEMTKADQLAQQAHSNRKLLDIA-NH2 [compound 96]
EC50 ([1]; CRF2R, read-out: CRF2R EC50): ≥ 100 nM | EC50 ([2]; CRF1R, read-out: CRF1R EC50): ≥ 100 nM

SQEPPISLDLPIGLLREVLEMTKADQLAQQAHSNRKLLDIA-NH2 [compound 93]
EC50 ([1]; CRF2R, read-out: CRF2R EC50): ≥ 100 nM | EC50 ([2]; CRF1R, read-out: CRF1R EC50): ≥ 100 nM

SQEPPISLDLPIHLLREVLEMTKADQLAQQAHSNRKLLDIA-NH2 [compound 94]
EC50 ([1]; CRF2R, read-out: CRF2R EC50): ≥ 100 nM | EC50 ([2]; CRF1R, read-out: CRF1R EC50): ≥ 100 nM

SQEPPISLDLPIQLLREVLEMTKADQLAQQAHSNRKLLDIA-NH2 [compound 100]
EC50 ([1]; CRF2R, read-out: CRF2R EC50): ≥ 100 nM | EC50 ([2]; CRF1R, read-out: CRF1R EC50): ≥ 100 nM

SQEPPISLDLPLGLLREVLEMTKADQLAQQAHSNRKLLDIA-NH2 [compound 90]
EC50 ([1]; CRF2R, read-out: CRF2R EC50): ≥ 100 nM | EC50 ([2]; CRF1R, read-out: CRF1R EC50): ≥ 100 nM

SQEPPISLDLPLHLLREVLEMTKADQLAQQAHSNRKLLDIA-NH2 [compound 102]
EC50 ([1]; CRF2R, read-out: CRF2R EC50): ≥ 100 nM | EC50 ([2]; CRF1R, read-out: CRF1R EC50): ≥ 100 nM

SQEPPISLDLPLQLLREVLEMTKADQLAQQAHSNRKLLDIA-NH2 [compound 95]
EC50 ([1]; CRF2R, read-out: CRF2R EC50): ≥ 100 nM | EC50 ([2]; CRF1R, read-out: CRF1R EC50): ≥ 100 nM

SQEPPISLDLPLYLLREVLEMTKADQLAQQAHSNRKLLDIA-NH2 [compound 101]
EC50 ([1]; CRF2R, read-out: CRF2R EC50): ≥ 100 nM | EC50 ([2]; CRF1R, read-out: CRF1R EC50): ≥ 100 nM

SQEPPISLDLPTELLREVLEMTKADQLAQQAHSNRKIIDIA-NH2 [compound 92]
EC50 ([1]; CRF2R, read-out: CRF2R EC50): ≥ 100 nM | EC50 ([2]; CRF1R, read-out: CRF1R EC50): ≥ 100 nM

SQEPPISLDLPTGLLREVLEMTKADQLAQQAHSNRKLLDIA-NH2 [compound 98]
EC50 ([1]; CRF2R, read-out: CRF2R EC50): ≥ 100 nM | EC50 ([2]; CRF1R, read-out: CRF1R EC50): ≥ 100 nM

SQEPPISLDLPTHLLREVLEMTKADQLAQQAHSNRKLLDIA-NH2 [compound 99]
EC50 ([1]; CRF2R, read-out: CRF2R EC50): ≥ 100 nM | EC50 ([2]; CRF1R, read-out: CRF1R EC50): ≥ 100 nM

SQEPPISLDLPTQLLREVLEMTKADQLAQQAHSNRKLLDIA-NH2 [compound 105]
EC50 ([1]; CRF2R, read-out: CRF2R EC50): ≥ 100 nM | EC50 ([2]; CRF1R, read-out: CRF1R EC50): ≥ 100 nM

SQEPPISLDLPTYLLREVLEMTKADQLAQQAHSNRKLLDIA-NH2 [compound 106]
EC50 ([1]; CRF2R, read-out: CRF2R EC50): ≥ 100 nM | EC50 ([2]; CRF1R, read-out: CRF1R EC50): ≥ 100 nM

SQEPPISLDLTFGLLREVLEMTKADQLAQQAHSNRKLLDIA-NH2 [compound 88]
EC50 ([1]; CRF2R, read-out: CRF2R EC50): ≥ 100 nM | EC50 ([2]; CRF1R, read-out: CRF1R EC50): ≥ 100 nM

SQEPPISLDLTIGLLREVLEMTKADQLAQQAHSNRKLLDIA-NH2 [compound 86]
EC50 ([1]; CRF2R, read-out: CRF2R EC50): ≥ 100 nM | EC50 ([2]; CRF1R, read-out: CRF1R EC50): ≥ 100 nM

SQEPPISLDLTIHLLREVLEMTKADQLAQQAHSNRKLLDIA-NH2 [compound 87]
EC50 ([1]; CRF2R, read-out: CRF2R EC50): ≥ 100 nM | EC50 ([2]; CRF1R, read-out: CRF1R EC50): ≥ 100 nM
